The target of assay [1] is T1, αVβ3 (Homo sapiens, UniProt P05106+P06756). Briefly: αVβ3-mediated cell adhesion to fibrinogen. It is filed as cell-based.
The target in assay [2] is T1, αVβ3. Briefly: Monoclonal antibody AP5 binding assay. It counts as cell-based.
The target of assay [3] is recombinant αVβ3 ectodomain (Homo sapiens, UniProt P05106+P06756). Briefly: Negative-stain electron microscopy of αVβ3 ectodomain conformation.

Each structure is given as a SMILES string. Entries after “also recorded” stand apart in the source; their conditions may differ. Structures can show the parent of a compound that is named as a salt.

As for `OCC[C@H]1CN(c2ccnc3ccccc23)CCN1Cc1ccc2c(n1)NCCC2` [MSR01S, (S)-2-(4-(quinolin-4-yl)-1-((5,6,7,8-tetrahydro-1,8-naphthyridin-2-yl)methyl)-piperazin-2-yl)ethan-1-ol hydrochloride], the IC50 in assay [1] came to 1 ± 0.3 µM.
Take `OCC[C@@H]1CN(c2ccnc3ccccc23)CCN1Cc1ccc2c(n1)NCCC2` [MSR01R, (R)-2-(4-(quinolin-4-yl)-1-((5,6,7,8-tetrahydro-1,8-naphthyridin-2-yl)methyl)piperazin-2-yl)ethan-1-ol hydrochloride]: half-maximal inhibition in assay [1] (IC50) was put at 1.3 ± 0.33 µM.
Take `COc1ccc([C@H](CC(=O)O)N2CCN(CCCc3ccc4c(n3)NCCC4)C2=O)cn1` [MK-429, reference compound]: the “inhibition of αVβ3-mediated cell adhesion (positive control)” value in assay [1] (3 nM) is given as above 90%.
In assay [1], `c1ccc2c(N3CCN(Cc4ccc5c(n4)NCCC5)CC3)ccnc2c1` [MSR02, 7-((4-(quinolin-4-yl)piperazin-1-yl)methyl)-1,2,3,4-tetrahydro-1,8-naphthyridine] displayed an IC50 of 2 ± 1.73 µM.
`Cl.Cl.O=C(NCCCc1ccc2c(n1)NCCC2)Nc1ccnc2ccccc12` [MSR03, 1-(quinolin-4-yl)-3-(3-(5,6,7,8-tetrahydro-1,8-naphthyridin-2-yl)propyl)urea dihydrochloride]: the IC50 in assay [1] came out at 1.6 ± 0.58 µM. For the same compound, the “increase in potency vs ZINC72424116” value in assay [1] (adhesion IC50) amounted to 3.5 fold. The compound further had an EC50 in assay [2] (EC50 (half-maximal exposure of the AP5 epitope), MSR03 dihydrochloride prepared in 1 M NaCl, n = 3) above 300 µM. Besides, in assay [2] (HEK-αVβ3 cells), the “exposure of the AP5 epitope (in words)” value is on record as “did not expose the AP5 epitope; also recorded: does not expose the epitope for the ligand-induced binding site of antibody AP5”. Moreover, in assay [3], the “receptor extension and swing-out by negative-stain EM (in words)” value is “does not induce receptor extension and swing-out”. Also, the “percentage of αVβ3 in the active, extended-open conformation” value in assay [3] (312 μM, control 5%) is on record as “did not increase this percentage”.

A word on the IC50: it is the point on the concentration scale where inhibition reaches its midpoint. High values mean a need for much substance, low ones inhibition by little substance. By EC50 is commonly meant the concentration that produces a half-maximal response. Read a high EC50 as a less potent agent.

These data come from PMC9767310 (Journal of chemical information and modeling, 2022).
